Data published in US9321737B2, “CDK8-CDK19 selective inhibitors and their use in anti-metastatic and chemopreventative methods for cancer” (SENEX BIOTECHNOLOGY INC, priority 2012, dated 2016).

What was measured:
MDA-MB-231 = MDA-MB-231 orthotopic TNBC xenograft; type: in vivo, female SCID mice; conditions: 40 mg/kg, 5 daily doses, three rounds
Method: Once tumors were formed, mice were randomized into 4 cohorts (n=10) and treated, at 7-10 day intervals, with three rounds of: vehicle (5 daily doses), 1 mg/kg doxorubicin (single dose), 40 mg/kg Senexin B (5 daily doses) or doxorubicin (single dose)+Senexin B (5 daily doses).

CDK8 = CDK8 (Homo sapiens, UniProt P49336); assay: Kd determination, CDK8; type: binding; conditions: in duplicate
CDK8, sequence (P49336 whole entry): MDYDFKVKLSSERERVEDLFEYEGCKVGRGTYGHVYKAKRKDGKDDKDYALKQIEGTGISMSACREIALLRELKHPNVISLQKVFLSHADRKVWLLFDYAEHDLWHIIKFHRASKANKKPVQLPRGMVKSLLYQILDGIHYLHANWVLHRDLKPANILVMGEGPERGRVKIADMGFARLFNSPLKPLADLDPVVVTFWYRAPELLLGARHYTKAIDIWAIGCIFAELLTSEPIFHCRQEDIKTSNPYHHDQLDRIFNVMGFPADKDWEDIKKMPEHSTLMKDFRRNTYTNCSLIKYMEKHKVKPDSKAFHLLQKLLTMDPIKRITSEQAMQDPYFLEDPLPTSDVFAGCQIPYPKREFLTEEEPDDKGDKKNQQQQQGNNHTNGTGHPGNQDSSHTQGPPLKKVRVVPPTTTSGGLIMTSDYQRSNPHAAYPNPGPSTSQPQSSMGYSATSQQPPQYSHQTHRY
Excerpt: (§1) (16) The results of this analysis are presented in FIGS. 6A-B in the form of an evolutionary dendrogram of the kinase family, where kinase inhibition is represented by red circles, the size of which represents the magnitude of the inhibition.

[1] = system: MDA-MB-468 triple-negative breast cancer (TNBC) cells; assay: Pretreatment and treatment, MDA-MB-468 orthotopic engraftment; type: in vivo, female nude mice
Method: Next we tested the effect of 5-day pretreatment with 25 mg/kg daily doses of Senexin B (i.p.) on the engraftment of MDA-MB-468 triple-negative breast cancer (TNBC) cells, injected orthotopically in the fat pad of 6-8 week old female nude mice (4 per group), following the last Senexin B treatment. The appearance of palpable tumors was scored every day. […] In the experiment shown in FIG. 9B, mice were treated (daily i.p. injections with 40 mg/kg Senexin B) both before MDA-MB-468 injection (for three days) and after the injection.

CDK19 = CDK19 (Homo sapiens, UniProt Q9BWU1); assay: KinomeScan ATP pocket binding inhibition, CDK19; conditions: 2,000 nM
CDK19, sequence (Q9BWU1 whole entry): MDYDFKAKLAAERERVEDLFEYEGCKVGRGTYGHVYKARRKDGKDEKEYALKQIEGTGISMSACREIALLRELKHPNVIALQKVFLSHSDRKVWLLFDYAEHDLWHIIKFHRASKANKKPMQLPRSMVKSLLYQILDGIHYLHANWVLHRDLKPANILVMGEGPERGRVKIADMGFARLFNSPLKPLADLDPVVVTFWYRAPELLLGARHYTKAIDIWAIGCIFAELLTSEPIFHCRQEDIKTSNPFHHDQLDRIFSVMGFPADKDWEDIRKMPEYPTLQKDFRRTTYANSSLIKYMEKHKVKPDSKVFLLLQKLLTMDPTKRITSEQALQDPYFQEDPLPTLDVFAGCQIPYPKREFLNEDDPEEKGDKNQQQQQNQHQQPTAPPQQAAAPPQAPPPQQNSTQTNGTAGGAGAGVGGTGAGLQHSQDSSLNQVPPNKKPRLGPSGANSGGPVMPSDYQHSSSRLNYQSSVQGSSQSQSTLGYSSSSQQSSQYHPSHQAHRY
Excerpt: as §1

4T1 = assay: Breast carcinoma cell growth, MTT, 4T1; type: cell-based; conditions: five days
YSK4 = biological target: T1, YSK4 (Homo sapiens, UniProt Q56UN5); assay: KinomeScan ATP pocket binding inhibition, YSK4; conditions: 2,000 nM
T1 construct: purchased KinomeScan, a division of Ambit Biosciences
T1 sequence (Q56UN5 1-1328): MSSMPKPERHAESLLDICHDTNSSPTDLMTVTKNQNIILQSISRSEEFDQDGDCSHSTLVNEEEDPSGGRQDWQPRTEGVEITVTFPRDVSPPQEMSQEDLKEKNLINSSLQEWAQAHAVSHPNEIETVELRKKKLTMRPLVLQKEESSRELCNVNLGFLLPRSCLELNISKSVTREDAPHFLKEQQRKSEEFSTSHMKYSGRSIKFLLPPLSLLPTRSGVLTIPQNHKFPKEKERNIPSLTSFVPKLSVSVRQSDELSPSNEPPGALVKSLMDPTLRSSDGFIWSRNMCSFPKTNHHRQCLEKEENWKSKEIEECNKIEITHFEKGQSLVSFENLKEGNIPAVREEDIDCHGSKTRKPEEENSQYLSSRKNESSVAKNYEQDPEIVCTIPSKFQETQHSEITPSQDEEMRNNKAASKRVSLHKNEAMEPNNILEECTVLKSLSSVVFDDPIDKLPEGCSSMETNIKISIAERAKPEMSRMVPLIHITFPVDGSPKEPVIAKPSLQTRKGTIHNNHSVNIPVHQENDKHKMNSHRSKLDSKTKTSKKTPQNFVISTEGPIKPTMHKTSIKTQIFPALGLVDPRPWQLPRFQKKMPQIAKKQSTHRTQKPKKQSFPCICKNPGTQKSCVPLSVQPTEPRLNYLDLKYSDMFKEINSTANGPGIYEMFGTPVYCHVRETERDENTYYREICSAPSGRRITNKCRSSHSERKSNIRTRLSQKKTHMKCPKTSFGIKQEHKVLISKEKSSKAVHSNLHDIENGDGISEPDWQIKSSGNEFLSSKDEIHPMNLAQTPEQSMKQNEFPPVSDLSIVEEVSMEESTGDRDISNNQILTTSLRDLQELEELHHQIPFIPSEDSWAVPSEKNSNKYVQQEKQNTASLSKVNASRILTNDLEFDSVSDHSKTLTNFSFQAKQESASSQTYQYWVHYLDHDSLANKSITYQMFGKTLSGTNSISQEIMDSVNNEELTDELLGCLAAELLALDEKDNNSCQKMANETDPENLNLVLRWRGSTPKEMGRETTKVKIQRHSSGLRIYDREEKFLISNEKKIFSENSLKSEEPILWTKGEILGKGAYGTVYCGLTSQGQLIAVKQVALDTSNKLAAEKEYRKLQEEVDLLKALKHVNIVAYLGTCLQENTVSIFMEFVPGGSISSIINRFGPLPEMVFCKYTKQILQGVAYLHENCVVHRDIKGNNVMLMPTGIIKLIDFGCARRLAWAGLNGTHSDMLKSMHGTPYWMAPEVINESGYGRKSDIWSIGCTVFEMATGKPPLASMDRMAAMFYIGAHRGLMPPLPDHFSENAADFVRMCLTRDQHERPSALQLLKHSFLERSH
Excerpt: as §1

MDA-MB-468 [2] = assay: Breast carcinoma cell growth, MTT, MDA-MB-468; type: cell-based; conditions: five days
[3] = system: A549 human lung xenograft tumors; assay: Pretreatment before A549 xenograft injection; type: in vivo, CB-17 SCID mice; conditions: 5 daily i.p. 40 mg/kg before s.c. A549 injection; p<0.007 on days 21 and 24
Method: Mice were then injected s.c. with 1×10^6 cells of human A549 lung cancer cell line; the tumor cells were injected in the afternoon of the same day when the last dose of treatment was administered in the morning. Starting from day 7 after tumor injection, mice were monitored for tumor formation twice a week, with 3-4 day intervals, until day 24 after tumor injection; tumor volumes were calculated via caliper measurements. By the end of the study, all the mice in both groups developed measurable tumors. […] Each point represents mean and standard deviation of tumor volume within a group of 10 mice.

[4] = system: β-catenin-dependent TOPFLASH promoter in HCT116 colon carcinoma cells; assay: β-catenin-dependent TOPFLASH luciferase assay; type: cell-based; conditions: different concentrations
Method: The effect of different concentrations of Senexin B on luciferase expression from β-catenin-dependent TOPFLASH promoter in HCT116 colon carcinoma cells was measured as described in US Patent Publication 20120071477 for Senexin A (SNX2-1-53).

MDA-MB-468 [5] = assay: MDA-MB-468 TNBC xenograft model; type: in vivo, female nude mice; conditions: 40 mg/kg Senexin B daily i.p.; 4 mg/kg doxorubicin two injections two weeks apart
Method: Female nude mice were inoculated with MDA-MB-468 cells, and once palpable tumors were formed, mice were randomized into 4 groups, treated daily i.p. with vehicle alone (n=12), 40 mg/kg Senexin B, two injections with 4 mg/kg doxorubicin two weeks apart, or doxorubicin combined with Senexin B (n=8 in each of the latter groups).

[6] = system: MDA-MB-468 TNBC tumor invasion; assay: Histological analysis of MDA-MB-468 tumor invasion (H&E); type: in vivo, female nude mice; conditions: tumors from FIG. 15B experiment
Excerpt: At the end of the experiment shown in FIG. 15B, mice were sacrificed, tumors were removed, formalin fixed, sectioned and processed for histological analysis after H&E staining.

SMILES: CN1CCN(C(=O)c2ccc3cc(CCNc4ncnc5ccc(C#N)cc45)ccc3c2)CC1 [SNX2-1-165]
- body weight difference from control (MDA-MB-231): no significant weight difference from the control
- Kd (CDK8): 140 nM
- appearance of palpable tumors ([1]; 5-day pretreatment 25 mg/kg daily i.p.): significantly slower appearance of palpable tumors
- tumor growth (tumor volumes, caliper) ([1]; daily i.p. 40 mg/kg, three days before and after injection): strong and sustained inhibition of tumor growth
- % inhibition of CDK19 (CDK19): 98.6%
- growth inhibition, 4T1 (4T1): not inhibited except for the highest concentrations
- % inhibition of YSK4 (YSK4): 59%
- growth inhibition, MDA-MB-468 (MDA-MB-468 [2]): dose-dependent growth inhibition
- tumor growth (tumor volume) after pretreatment [3]: significantly slower tumor growth
- luciferase expression from TOPFLASH promoter (β-catenin activity) [4]: concentration-dependent inhibition
- tumor growth (tumor volumes after 30 days of treatment) (MDA-MB-468 [5]): significantly slowed down the tumor growth
- invasive or non-invasive tumor growth [6]: non-invasive
